# Experimental data published in patent US10669272B2, “Substituted naphthyridinone compounds useful as T cell activators” (BRISTOL-MYERS SQUIBB COMPANY, priority 2018, dated 2020).
# Like-named read-outs stand apart in the source and are kept apart here.
# Key:
# human DGKζ = biological target: T1, human DGKζ (Homo sapiens, UniProt Q13574); test: DGKζ LIPGLO assay (extruded liposome substrate), in vitro DGK inhibition; format: biochemical; conditions: read-out: DGKz LIPGLO IC50
# T1 construct: TVMV protease cleavage site (C); Hexa-His (C); made in house; host or cells: Sf9 insect cells (baculovirus, Bac-to-Bac)
# human DGKα = biological target: T2, human DGKα (Homo sapiens, UniProt P23743); test: DGKα LIPGLO assay (extruded liposome substrate), in vitro DGK inhibition; format: biochemical; conditions: read-out: DGKa LIPGLO IC50
# T2 construct: TVMV protease cleavage site (C); Hexa-His (C); made in house; host or cells: Sf9 insect cells (baculovirus, Bac-to-Bac)
# Human venous whole blood = test: Human whole blood IFN-γ assay; format: cell-based; conditions: human whole blood, read-out: INFg Whole Blood Normalized Agonist EC50;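 also: blood from healthy donors exposed to compound for 1 h before stimulation with anti-CD3 and anti-CD28 at 1 µg/mL each, IFN-γ quantified in supernatant by AlphaLISA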
# Protocol: Human Whole Blood IFN-γ Assay
# Human venous whole blood (22.5 μL per well), obtained from healthy donors, was pre-treated with compounds for one hour at 37° C. in a humidified 95% air/5% CO2 incubator. The blood was stimulated with 2.5 μL anti-human CD3 and anti-CD28 mAb at a final concentration of 1 μg/mL each for 24 hours at 37° C. IFN-γ in the supernatants was measured using AlphLISA kit (Cat # AL217).
# [1] = anti-CD3 plus anti-CD28, 24 hours, 3 μM reference compound = 100% activation
# [2] = normalized to 3 μM reference compound with anti-CD3 plus anti-CD28 as 100% activation
# [3] = Homo sapiens, 24 h, anti-CD3 plus anti-CD28, 24 hours, 3 μM reference compound = 100% activation
# [4] = Homo sapiens, 24 h, normalized to 3 μM reference compound with anti-CD3 plus anti-CD28 as 100% activation
# T1 sequence (Q13574 with tags, fused parts or gaps isoform Q13574-4): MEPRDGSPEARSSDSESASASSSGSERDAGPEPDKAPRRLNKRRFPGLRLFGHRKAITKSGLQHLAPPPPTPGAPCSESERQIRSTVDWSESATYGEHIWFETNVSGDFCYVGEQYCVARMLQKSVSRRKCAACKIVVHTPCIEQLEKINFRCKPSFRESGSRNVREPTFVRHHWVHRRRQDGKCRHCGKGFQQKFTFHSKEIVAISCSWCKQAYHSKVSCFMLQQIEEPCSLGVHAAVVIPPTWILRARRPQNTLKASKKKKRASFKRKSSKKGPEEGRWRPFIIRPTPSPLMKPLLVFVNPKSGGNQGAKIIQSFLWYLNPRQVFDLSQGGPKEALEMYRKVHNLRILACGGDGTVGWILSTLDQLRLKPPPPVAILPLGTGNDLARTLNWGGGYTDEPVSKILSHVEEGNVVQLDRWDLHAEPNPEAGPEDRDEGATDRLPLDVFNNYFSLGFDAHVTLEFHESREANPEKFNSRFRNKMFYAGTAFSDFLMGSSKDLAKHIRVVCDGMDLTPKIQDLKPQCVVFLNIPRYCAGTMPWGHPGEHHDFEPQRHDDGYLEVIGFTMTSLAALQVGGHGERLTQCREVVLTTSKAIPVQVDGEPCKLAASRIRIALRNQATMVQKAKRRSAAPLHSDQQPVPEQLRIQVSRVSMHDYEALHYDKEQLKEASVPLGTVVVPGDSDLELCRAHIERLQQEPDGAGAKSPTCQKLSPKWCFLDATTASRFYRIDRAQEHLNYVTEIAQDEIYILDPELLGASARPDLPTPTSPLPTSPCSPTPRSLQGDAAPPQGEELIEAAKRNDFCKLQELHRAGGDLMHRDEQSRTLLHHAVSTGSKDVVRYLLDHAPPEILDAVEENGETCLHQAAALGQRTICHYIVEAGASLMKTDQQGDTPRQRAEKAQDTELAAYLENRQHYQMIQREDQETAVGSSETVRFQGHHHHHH
# T2 sequence (P23743 with tags, fused parts or gaps): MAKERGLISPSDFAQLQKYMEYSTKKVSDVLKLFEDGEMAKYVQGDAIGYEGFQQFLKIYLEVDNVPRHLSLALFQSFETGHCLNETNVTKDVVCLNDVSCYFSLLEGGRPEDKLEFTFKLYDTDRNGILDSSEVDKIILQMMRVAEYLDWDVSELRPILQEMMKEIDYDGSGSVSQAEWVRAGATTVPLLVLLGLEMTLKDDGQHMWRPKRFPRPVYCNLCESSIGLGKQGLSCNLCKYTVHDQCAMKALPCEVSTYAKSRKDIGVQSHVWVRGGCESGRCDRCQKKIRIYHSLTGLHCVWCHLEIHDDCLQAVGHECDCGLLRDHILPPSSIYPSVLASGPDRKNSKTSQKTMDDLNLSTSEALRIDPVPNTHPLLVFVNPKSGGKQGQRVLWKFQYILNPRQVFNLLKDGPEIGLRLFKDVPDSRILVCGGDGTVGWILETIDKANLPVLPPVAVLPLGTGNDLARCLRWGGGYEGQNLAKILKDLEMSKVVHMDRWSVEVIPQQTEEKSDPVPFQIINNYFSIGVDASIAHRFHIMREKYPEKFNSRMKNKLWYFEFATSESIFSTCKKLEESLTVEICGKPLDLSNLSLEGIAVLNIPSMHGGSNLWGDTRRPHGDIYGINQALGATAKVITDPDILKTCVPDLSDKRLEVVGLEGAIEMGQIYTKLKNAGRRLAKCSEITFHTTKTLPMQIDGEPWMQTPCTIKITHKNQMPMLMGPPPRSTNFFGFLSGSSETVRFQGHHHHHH
Structure (SMILES),IC50 (human DGKζ; DGKζ liposome (LIPGLO) assay),IC50 (human DGKα; DGKα liposome (LIPGLO) assay),EC50 (Human venous whole blood; [1]),IC50 (human DGKζ; liposome (LIPGLO) assay),IC50 (human DGKα; liposome (LIPGLO) assay),EC50 (Human venous whole blood; [2]),EC50 (Human venous whole blood; [3]),EC50 (Human venous whole blood; [4])
"CCc1noc(C(c2ccc(F)cc2)N2C[C@H](C)N(c3cc(=O)n(C)c4ccc(C#N)nc34)C[C@H]2C)n1 (single isomer, unassigned) [Example 754]",230 nM,58 nM,91 nM,,,,,
"CC(c1cc(C2CC2)on1)N1C[C@H](C)N(c2cc(=O)n(C)c3ccc(C#N)nc23)C[C@H]1C (single isomer, unassigned) [Example 1281]",,,,1100 nM,490 nM,1600 nM,,
"C[C@@H]1CN(c2cc(=O)n(C)c3ccc(C#N)nc23)[C@@H](C)CN1C(c1ccc(F)cc1)c1cc(C2CC2)on1 (single isomer, unassigned) [Example 730]",640 nM,44 nM,,,,,870 nM,
C[C@@H]1CN(c2cc(=O)n(C)c3ccc(C#N)nc23)[C@@H](C)CN1Cc1ccc(C(C)(C)C)cc1 [Example 587],,,,6600 nM,4600 nM,,,2300 nM
"Cc1cc(C(C)N2C[C@H](C)N(c3cc(=O)n(C)c4ccc(C#N)nc34)C[C@H]2C)no1 (single isomer, unassigned) [Example 649]",,,,3400 nM,3600 nM,,,20000 nM
Cc1cc(C)cc(CN2CCN(c3c(C#N)c(=O)n(C)c4ccc(C#N)nc34)C[C@H]2C)c1 [Example 1000],6200 nM,2700 nM,,,,,4000 nM,
"CC[C@@H]1CN(c2c(F)c(=O)n(C)c3ccc(C#N)nc23)[C@@H](C)CN1C(C)c1ccc(OC(F)(F)F)cc1 (single isomer, unassigned) [Example 1329]",,,,26000 nM,1500 nM,3600 nM,,
"C[C@@H]1CN(c2cc(=O)n(C)c3ccc(C#N)nc23)[C@@H](C)CN1C(c1ccc(F)cc1)c1csc(C(F)(F)F)n1 (single isomer, unassigned) [Example 1334]",,,,140 nM,110 nM,260 nM,,
C[C@@H]1CN(c2c(C#N)c(=O)n(C)c3ccc(C#N)nc23)CCN1Cc1cccc(C(F)(F)F)c1 [Example 1003],3900 nM,2800 nM,,,,,20000 nM,
"CC[C@@H]1CN(c2cc(=O)n(C)c3ccc(C#N)nc23)[C@@H](C)CN1C(c1ccc(F)cc1)c1nc(C2CC2)cs1 (single isomer, unassigned) [Example 1338]",,,,29 nM,69 nM,,,130 nM
CC(C)Oc1ccc(C(c2cccc(F)c2)N2C[C@H](C)N(c3cc(=O)n(C)c4ccc(C#N)nc34)C[C@H]2C)nc1 (stereo partly drawn) [Example 691],,,,560 nM,4500 nM,2700 nM,,
"C[C@@H]1CN(c2c(C#N)c(=O)n(C)c3ccc(C#N)nc23)[C@@H](C)CN1C(c1ccc(F)cc1)c1cc(C(C)(C)C)on1 (single isomer, unassigned) [Example 867]",7900 nM,> 250000 nM,20000 nM,,,,,
"C[C@@H]1CN(c2c(C#N)c(=O)n(C)c3ccc(C#N)nc23)CCN1C(c1ccc(F)cc1)c1ccccn1 (single isomer, unassigned) [Example 919]",5800 nM,980 nM,1400 nM,,,,,
"CC(c1ccccn1)N1CCN(c2c(C#N)c(=O)n(C)c3ccc(C#N)nc23)C[C@H]1C (single isomer, unassigned) [Example 963]",180000 nM,1400 nM,,,,,20000 nM,
"CC[C@H]1CN(C(c2ccc(F)cc2)c2cscn2)[C@H](CC)CN1c1cc(=O)n(C)c2ccc(C#N)nc12 (single isomer, unassigned) [Example 1071]",,,,44 nM,14 nM,190 nM,,
C[C@@H]1CN(c2c(C#N)c(=O)n(C)c3ccc(C#N)nc23)CCN1C(c1ccc(F)cc1)c1ccc(F)cc1F (stereo partly drawn) [Example 946],730 nM,590 nM,,,,,680 nM,

Structure (SMILES),IC50 (human DGKζ; DGKζ liposome (LIPGLO) assay),IC50 (human DGKα; DGKα liposome (LIPGLO) assay),EC50 (Human venous whole blood; [1]),IC50 (human DGKζ; liposome (LIPGLO) assay),IC50 (human DGKα; liposome (LIPGLO) assay),EC50 (Human venous whole blood; [2]),EC50 (Human venous whole blood; [3]),EC50 (Human venous whole blood; [4])
"Cc1ccc(C(c2ccc(C)cn2)N2C[C@H](C)N(c3cc(=O)n(C)c4ccc(C#N)nc34)C[C@H]2C)cc1 (single isomer, unassigned) [Example 454]",,,,540 nM,230 nM,,,470 nM
"CC[C@H]1CN(C(c2ccc(F)cc2)c2ccon2)[C@H](CC)CN1c1cc(=O)n(C)c2ccc(C#N)nc12 (single isomer, unassigned) [Example 1072]",,,,750 nM,100 nM,770 nM,,
"CC[C@H]1CN(C(c2ccc(F)cc2)c2cccc(C(F)(F)F)n2)[C@H](C)CN1c1cc(=O)n(C)c2ccc(C#N)nc12 (single isomer, unassigned) [Example 1133]",,,,130 nM,1600 nM,,,570 nM
"C[C@@H]1CN(c2cc(=O)n(C)c3ccc(C#N)nc23)[C@@H](C)CN1Cc1ccc(OC(F)(F)F)cc1F (single isomer, unassigned) [Example 591]",,,,3900 nM,3100 nM,,,19000 nM
"C[C@@H]1CN(c2c(F)c(=O)n(C)c3ccc(C#N)nc23)[C@@H](C)CN1C(c1ccc(Cl)cc1)c1ccc(OC(F)(F)F)cc1 (stereo partly drawn) [Example 324, 8-((2S,5R)-4-((4-chlorophenyl)(4-(trifluoromethoxy)phenyl)methyl)-2,5-dimethylpiperazin-1-yl)-7-fluoro-5-methyl-6-oxo-5,6-dihydro-1,5-naphthyridine-2-carbonitrile]",,,,4100 nM,1200 nM,4700 nM,,
"C[C@@H]1CN(c2c(C#N)c(=O)n(C)c3ccc(C#N)nc23)[C@@H](C)CN1C(c1ccc(F)cc1)c1cccc(C(F)(F)F)n1 (single isomer, unassigned) [Example 844]",5200 nM,100000 nM,,,,,2700 nM,
"CC(c1cccc2ncccc12)N1C[C@H](C)N(c2cc(=O)n(C)c3ccc(C#N)nc23)C[C@H]1C (single isomer, unassigned) [Example 638]",,,,1800 nM,110000 nM,,,20000 nM
"Cc1ccc(C(c2ccc(C#N)cc2)N2C[C@H](C)N(c3cc(=O)n(C)c4ccc(C#N)nc34)C[C@H]2C)nc1 (single isomer, unassigned) [Example 361]",,,,1100 nM,210 nM,1100 nM,,
"CC(c1cccc2c1OC(F)(F)O2)N1C[C@H](C)N(c2cc(=O)n(C)c3ccc(C#N)nc23)C[C@H]1C (single isomer, unassigned) [Example 1216]",,,,150 nM,83000 nM,1800 nM,,
"CC(c1cccc(OC(F)(F)F)c1F)N1C[C@H](C)N(c2cc(=O)n(C)c3ccc(C#N)nc23)C[C@H]1C (single isomer, unassigned) [Example 1208]",,,,37 nM,1100 nM,1000 nM,,
"CC[C@@H]1CN(c2cc(=O)n(C)c3ccc(C#N)nc23)[C@@H](C)CN1C(c1ccc(F)cc1)c1ccnc(C)n1 (stereo partly drawn) [Example 419, 8-((2S,5R)-5-ethyl-4-((4-fluorophenyl)(2-methylpyrimidin-4-yl)methyl)-2-methylpiperazin-1-yl)-5-methyl-6-oxo-5,6-dihydro-1,5-naphthyridine-2-carbonitrile]",,,,340 nM,950 nM,960 nM,,
COC[C@@H]1CN(c2cc(=O)n(C)c3ccc(C#N)nc23)[C@@H](C)CN1C(c1ccc(F)cc1)c1ccc(C(F)(F)F)cn1 (stereo partly drawn) [Example 1401],,,,49 nM,300 nM,,,470 nM
"CC(C)c1ccc(C(C)N2C[C@H](C)N(c3cc(=O)n(C)c4ccc(C#N)nc34)C[C@H]2C)cc1 (single isomer, unassigned) [Example 1234]",,,,1400 nM,2200 nM,5400 nM,,
C[C@@H]1CN(c2c(C#N)c(=O)n(C)c3ccc(C#N)nc23)[C@@H](C)CN1C(c1ccccc1)c1ccc(Cl)cc1 (stereo partly drawn) [Example 834],6000 nM,22000 nM,3600 nM,,,,,
"C[C@@H]1CN(c2cc(=O)n(C)c3ccc(C#N)nc23)[C@@H](C)CN1C(c1ccc(F)cc1)c1cc(F)ccn1 (stereo partly drawn) [Example 472, 8-((2S,5R)-4-((4-fluorophenyl)(4-fluoropyridin-2-yl)methyl)-2,5-dimethylpiperazin-1-yl)-5-methyl-6-oxo-5,6-dihydro-1,5-naphthyridine-2-carbonitrile]",,,,2900 nM,1300 nM,,,1300 nM
